Measurements: ChEMBL document CHEMBL5584289, “Molecular understanding of the therapeutic potential of melanin inhibiting natural products” (RSC Med Chem, 2024)
Values after ≈ are worked out from the molar mass of the structure shown. Values belong to the compound of their own block, whether it stands above or below them. Peptide text beside a SMILES is read from it.

Experiments:
[1] = Acute toxicity in zebrafish embryos assessed as lethal concentration compound measured for every 24 hrs in 96 hrs; design: species or system Danio rerio; settings: in vivo
[2] = Inhibition of Artocarpus chama tyrosinase
Mushroom tyrosinase [3] = biological target: T1, Mushroom tyrosinase (Agaricus bisporus, UniProt O42713+Q00024+C7FF04+C7FF05); assay: Inhibition of mushroom tyrosinase monophenolase activity; type: protein assay
[4] = biological target: T2, Mushroom tyrosinase (Agaricus bisporus) (UniProt O42713+Q00024+C7FF04+C7FF05); assay: Inhibition of mushroom tyrosinase at 25 uM using L-tyrosine as substrate incubated for 30 mins relative to control; type: protein assay
[5] = Antioxidant activity assessed as DPPH radical scavenging activity; type: functional
[6] = Antioxidant activity assessed as interaction reducing activity with DPPH at 10 uM measured after 1 hr by absorbance based assay; type: functional
[7] = Antioxidant activity assessed as hydroxyl radical scavenging activity at 10 uM; type: functional
B16-F10 [8] = assay: Cytotoxicity against mouse B16-F10 cells assessed as reduction in cell viability at 15 uM incubated for 72 hrs relative to control; type: functional
[9] = biological target: T2, Mushroom tyrosinase (Agaricus bisporus); assay: Inhibition of mushroom tyrosinase at 50 ug/ml relative to control; type: protein assay; settings: dose 50.0 µg/ml
[10] = Antioxidant activity assessed as ABTS radical scavenging activity; type: functional
[11] = Antioxidant activity assessed as DPPH radical scavenging activity measured after 30 mins; type: functional
Mushroom tyrosinase [12] = biological target: T1, Mushroom tyrosinase; assay: Inhibition of mushroom tyrosinase; type: protein assay
MNT-1 = assay: Antiproliferative activity against human MNT-1 cells assessed as reduction in cell viability incubated for 72 hrs by MTT assay; type: functional, cell-based; settings: MNT-1, 72 h
Mushroom tyrosinase [13] = biological target: T1, Mushroom tyrosinase; assay: Inhibition of mushroom tyrosinase diphenolase activity; type: protein assay
B16 = assay: Cytotoxicity against mouse B16 cells assessed as inhibition of cell proliferation incubated for 48 hrs by MTS assay; type: functional, cell-based; settings: B16, 48 h
[14] = biological target: T2, Mushroom tyrosinase (Agaricus bisporus); assay: Inhibition of mushroom tyrosinase monophenolase activity at 12.5 ug/ml using L-tyrosine as substrate relative to control; type: protein assay; settings: dose 12.5 µg/ml
[15] = biological target: T2, Mushroom tyrosinase (Agaricus bisporus); assay: Inhibition of mushroom tyrosinase at 12.5 ug/ml using L-DOPA as substrate relative to control; type: protein assay; settings: dose 12.5 µg/ml
B16-F10 [16] = assay: Cytotoxicity against mouse B16-F10 cells; type: functional, cell-based
B16-F10 [17] = assay: Antimelanogenic activity against alpha-MSH-stimulated mouse B16-F10 cells assessed as intracellular melanin production level at 10 uM pre-incubated for 1 hrs followed by alph-MSH stimulation and measured after 72 hrs by microplate reader analysis; type: functional; settings: time 73 hrs

Compound: COc1c(O)c(OC)c2c(oc3c(O)cccc32)c1OC
- LC50 at 24 h [1]: 4 mg/L (≈ 13.8 µM)

Compound: COc1cc2c(oc3c(O)cccc32)c(OC)c1OC
- LC50 at 24 h [1]: 37 mg/L (≈ 135 µM)

Compound: COc1ccc2c(c1)oc1c(OC)c(O)c(OC)cc12
- LC50 at 24 h [1]: 30 mg/L (≈ 109 µM)

Compound: COc1cc2c(cc1O)[C@@H]1COc3cc(O)ccc3[C@@H]1O2
- Activity (B16-F10 [8]): 14%

Compound: NCCCC[C@H](NC(=O)[C@H](Cc1cnc[nH]1)NC(=O)CN)C(=O)O (H-Gly-His-Lys-OH)
- LC50 at 24 h [1]: 30 mg/L (≈ 88.1 µM)

Compound: COc1cc(O)c2c(=O)c(-c3ccc(O)cc3O)coc2c1 [CAJANIN]
- IC50 (MNT-1): 1 µM

Compound: CC1(C)[C@@H](O)CC[C@]2(C)[C@H]3C(=O)C=C4[C@@H]5C[C@@](C)(C(=O)O)CC[C@]5(C)CC[C@@]4(C)[C@]3(C)CC[C@@H]12 [ENOXOLONE]
- IC50 [5]: 7.31 mg/L
- inhibition [4]: 92.6%

Compound: O=C(O)c1cc(O)c(O)c(O)c1 [GALLIC ACID]
- IC50 (Mushroom tyrosinase [3]): 1.53 µM
- IC50 (Mushroom tyrosinase [13]): 1.06 µM

Compound: O=C(OC[C@H]1O[C@@H](OC(=O)c2cc(O)c(O)c(O)c2)[C@H](OC(=O)c2cc(O)c(O)c(O)c2)[C@@H](OC(=O)c2cc(O)c(O)c(O)c2)[C@@H]1OC(=O)c1cc(O)c(O)c(O)c1)c1cc(O)c(O)c(O)c1 [PENTAGALLOYL GLUCOSE]
- IC50 (Mushroom tyrosinase [3]): 0.02 µM
- IC50 (Mushroom tyrosinase [13]): 0.02 µM

Compound: Cc1ccc(C(C)C)c(O)c1 [THYMOL]
- IC50 (B16-F10 [16]): 160 µM

Compound: C/C1=C\CC(C)(C)/C=C/C(=O)/C(C)=C/CC1 [ZERUMBONE]
- Activity (B16-F10 [17]): 40%

Continued, in another order:

- IC50 [2]: 38.78 mg/L (≈ 128 µM)
Compound: COc1cc(O)c2c(c1)OC(c1ccc(O)cc1O)CC2=O (stereo unspecified)

- IC50 (Mushroom tyrosinase [3]): 0.17 µM
- inhibition [4]: 94.9%
Compound: C[C@@]12C[C@@]3(O)O[C@@H](O1)[C@]1(COC(=O)c4ccccc4)[C@H]3C[C@@]12O[C@@H]1O[C@H](COC(=O)c2cc(O)c(O)c(O)c2)[C@@H](O)[C@H](O)[C@H]1O

- IC50 ([5]; read-out: IC50): 11.3 µM
- IC50 [6]: 69.1 µM
- IC50 [7]: 9.3 µM
Compound: CC(=O)CC(=O)c1ccc(O)c(O)c1

- inhibition [9]: 16.3%
Compound: O=C(O)CC(OC(=O)/C=C/c1ccc(O)cc1)C(=O)O (stereo unspecified)

- IC50 [5]: 67.45 mg/L
- IC50 [10]: 44.62 mg/L (≈ 253 µM)
- IC50 [11]: 5.65 mg/L (≈ 32.1 µM)
Compound: O=C1O[C@H]([C@@H](O)CO)C(O)=C1O [ASCORBIC ACID]

- IC50 (Mushroom tyrosinase [12]): 30 µM
Compound: O=C(/C=C/c1ccc(O)c(O)c1)OC(C(=O)O)C(O)C(=O)O (stereo unspecified) [CAFFEOYLTARTARIC ACID]

- IC50 (Mushroom tyrosinase [3]): 0.06 µM
- IC50 (Mushroom tyrosinase [13]): 0.07 µM
Compound: Oc1cc(O)c2c(c1)O[C@H](c1ccc(O)c(O)c1)[C@@H](O)C2 [CIANIDANOL]

- inhibition [14]: 39.5%
- inhibition [15]: 40.9%
Compound: C=C(CC[C@@H](C(=O)O)[C@H]1[C@H](O)C[C@@]2(C)C3=CC[C@@H](C(=C)C)[C@](C)(CCC(=O)O)C3=CC[C@]12C)C(C)C [PORICOIC ACID A]
- IC50 (B16): 48 mg/L (≈ 96.3 µM)

- IC50 (Mushroom tyrosinase [12]): 2.62 mg/L
- IC50 [10]: 135.31 mg/L (≈ 293 µM)
- IC50 [11]: 69.36 mg/L (≈ 150 µM)
Compound: COc1c(O[C@@H]2O[C@H](CO)[C@@H](O)[C@H](O)[C@H]2O)cc2occ(-c3ccc(O)cc3)c(=O)c2c1O [TECTORIDIN]

- IC50 (Mushroom tyrosinase [12]): 1.39 mg/L
- IC50 [10]: 45.6 mg/L (≈ 152 µM)
- IC50 [11]: 46.34 mg/L (≈ 154 µM)
Compound: COc1c(O)cc2occ(-c3ccc(O)cc3)c(=O)c2c1O [TECTORIGENIN]
